Results: patent US9302999B2, “Substituted triazoles as herbicides” (E. I. DU PONT DE NEMOURS AND COMPANY, priority 2012, dated 2016)

Legend:
Format in all cases: in vivo
[1] = test system: barnyardgrass (Echinochloa crus-galli); assay: Test A pre-/postemergence: barnyardgrass; details: for Barnyardgrass plant response rating: visual rating on 0 to 100 scale (0 no effect, 100 complete control), approximately ten days
How it was run: (§1)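 Visual 0–100 injury ratings (0 no effect, 100 complete control) taken about ten days after treatment, relative to untreated controls. Preemergence treatment was a directed soil spray; postemergence plants were 2–10 cm tall at one- to two-leaf stage. Soil: loam/sand blend.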

[2] = test system: crabgrass, large (large crabgrass, Digitaria sanguinalis); assay: Test A pre-/postemergence: crabgrass, large; details: for Crabgrass, Large plant response rating: visual rating on 0 to 100 scale (0 no effect, 100 complete control), approximately ten days
How it was run: as §1

[3] = test system: foxtail, giant (giant foxtail, Setaria faberii); assay: Test A pre-/postemergence: foxtail, giant; details: for Foxtail, Giant plant response rating: visual rating on 0 to 100 scale (0 no effect, 100 complete control), approximately ten days
How it was run: as §1

[4] = test system: morningglory (Ipomoea spp.); assay: Test A pre-/postemergence: morningglory; details: for Morningglory plant response rating: visual rating on 0 to 100 scale (0 no effect, 100 complete control), approximately ten days
How it was run: as §1

[5] = test system: velvetleaf (Abutilon theophrasti); assay: Test A pre-/postemergence: velvetleaf; details: for Velvetleaf plant response rating: visual rating on 0 to 100 scale (0 no effect, 100 complete control), approximately ten days
How it was run: as §1

[6] = test system: ryegrass, Italian (Italian ryegrass, Lolium multiflorum); assay: Test C pre-/postemergence: ryegrass, Italian
How it was run: (§2)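 Visual injury scored 0–100 (100 = complete control) against untreated controls after 13–15 greenhouse days. Surfactant-containing solvent formulations applied either to soil after sowing (loam/sand) or over 1- to 4-leaf plants, 2–18 cm tall.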

wild oat (Avena fatua) = assay: Test C pre-/postemergence: wild oat; details: Postemergence
How it was run: as §2

[7] = test system: galium (catchweed bedstraw, Galium aparine); assay: Test C pre-/postemergence: galium
How it was run: as §2

[8] = test system: large crabgrass (Digitaria sanguinalis); assay: Test C pre-/postemergence: large crabgrass
How it was run: as §2

[9] = test system: nutsedge, yellow (yellow nutsedge, Cyperus esculentus); assay: Test C pre-/postemergence: nutsedge, yellow
How it was run: as §2

[10] = test system: chickweed (common chickweed, Stellaria media); assay: Test C postemergence: chickweed
How it was run: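 Visual ratings of 0 (no effect) to 100 (complete control) were made against controls 13-15 days after a postemergence spray, with plants kept in a greenhouse. Plants were 2-18 cm tall (1- to 4-leaf stage) in Redi-Earth peat/vermiculite medium at treatment.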

[11] = Postemergence, 125 g ai/ha, 0 to 100 scale, 0 is no effect, 100 is complete control
[12] = Preemergence, 125 g ai/ha, 0 to 100 scale where 0 is no effect and 100 is complete control
[13] = Preemergence, 500 g ai/ha, 0 to 100 scale (0 no effect, 100 complete control)
[14] = Postemergence, 31 g ai/ha, scale 0 to 100 (0 no effect, 100 complete control)
[15] = Postemergence, 62 g ai/ha, scale 0 to 100 (0 no effect, 100 complete control)
[16] = Postemergence, 125 g ai/ha, scale 0 to 100, 0 no effect, 100 complete control
[17] = Postemergence, 250 g ai/ha, scale 0 to 100
[18] = Preemergence, 31 g ai/ha, scale of 0 to 100, 0 is no effect, 100 is complete control
[19] = Preemergence, 62 g ai/ha, scale of 0 to 100, 0 is no effect, 100 is complete control
[20] = Preemergence, 125 g ai/ha, scale 0 to 100, 0 no effect, 100 complete control
[21] = Preemergence, 250 g ai/ha, scale 0 to 100, 0 no effect, 100 complete control
[22] = 31 g ai/ha, scale 0 to 100 (0 no effect, 100 complete control)
[23] = 62 g ai/ha, scale 0 to 100 (0 no effect, 100 complete control)
[24] = 125 g ai/ha, scale 0 to 100, 0 no effect, 100 complete control

CCc1nn(-c2ccc(F)cc2)nc1Cc1ccnc(C(F)(F)F)c1 [Compound 154]
Plant response rating, Barnyardgrass [1, 11]: 90
Barnyardgrass plant response rating ([1]; Postemergence, 500 g ai/ha): 90
Plant response rating, Barnyardgrass [1, 12]: 100
Plant response rating, Barnyardgrass [1, 13]: 100
Plant response rating, Crabgrass, Large [2, 11]: 100
Crabgrass, Large plant response rating ([2]; Postemergence, 500 g ai/ha): 100
Plant response rating, Crabgrass, Large [2, 12]: 100
Plant response rating, Crabgrass, Large [2, 13]: 100
Plant response rating, Foxtail, Giant [3, 11]: 90
Foxtail, Giant plant response rating ([3]; Postemergence, 500 g ai/ha): 100
Plant response rating, Foxtail, Giant [3, 12]: 100
Plant response rating, Foxtail, Giant [3, 13]: 100
Plant response rating, Morningglory [4, 11]: 80
Morningglory plant response rating ([4]; Postemergence, 500 g ai/ha): 100
Plant response rating, Morningglory [4, 12]: 20
Plant response rating, Morningglory [4, 13]: 80
Plant response rating, Velvetleaf [5, 11]: 100
Velvetleaf plant response rating ([5]; Postemergence, 500 g ai/ha): 100
Plant response rating, Velvetleaf [5, 12]: 30
Plant response rating, Velvetleaf [5, 13]: 70
Plant response rating, Ryegrass, Italian [6, 14]: 5
Plant response rating, Ryegrass, Italian [6, 15]: 10
Plant response rating, Ryegrass, Italian [6, 16]: 30
Plant response rating, Ryegrass, Italian [6, 17]: 35
Plant response rating, Ryegrass, Italian [6, 18]: 10
Plant response rating, Ryegrass, Italian [6, 19]: 30
Plant response rating, Ryegrass, Italian [6, 20]: 90
Plant response rating, Ryegrass, Italian [6, 21]: 90
Plant response rating, Oat, Wild (wild oat (Avena fatua); [22]): 15
Plant response rating, Oat, Wild (wild oat (Avena fatua); [23]): 35
Plant response rating, Oat, Wild (wild oat (Avena fatua); [24]): 65
Plant response rating, Oat, Wild (wild oat (Avena fatua); 250 g ai/ha, scale 0 to 100): 65
Plant response rating, Galium [7, 14]: 45
Plant response rating, Galium [7, 15]: 60
Plant response rating, Galium [7, 16]: 70
Plant response rating, Galium [7, 17]: 75
Plant response rating, Galium [7, 18]: 5
Plant response rating, Galium [7, 19]: 85
Plant response rating, Galium [7, 20]: 85
Plant response rating, Galium [7, 21]: 100
Plant response rating, Crabgrass, Large [8, 14]: 20
Plant response rating, Crabgrass, Large [8, 15]: 30
Plant response rating, Crabgrass, Large [8, 16]: 45
Plant response rating, Crabgrass, Large [8, 17]: 70
Plant response rating, Crabgrass, Large [8, 18]: 90
Plant response rating, Crabgrass, Large [8, 19]: 100
Plant response rating, Crabgrass, Large [8, 20]: 100
Plant response rating, Crabgrass, Large [8, 21]: 100
Plant response rating, Nutsedge, Yellow [9, 14]: 10
Plant response rating, Nutsedge, Yellow [9, 15]: 10
Plant response rating, Nutsedge, Yellow [9, 16]: 15
Plant response rating, Nutsedge, Yellow [9, 17]: 15
Plant response rating, Nutsedge, Yellow [9, 18]: 0
Plant response rating, Chickweed [10, 22]: 85
Plant response rating, Chickweed [10, 23]: 85
Plant response rating, Chickweed [10, 24]: 95
Plant response rating, Chickweed ([10]; 250 g ai/ha, scale 0 to 100): 95

CCc1nn(-c2ccc(C(F)(F)F)cc2)nc1Cc1ccnc(C(F)(F)F)c1 [Compound 155]
Plant response rating, Barnyardgrass [1, 11]: 90
Barnyardgrass plant response rating ([1]; Postemergence, 500 g ai/ha): 90
Plant response rating, Barnyardgrass [1, 12]: 100
Plant response rating, Barnyardgrass [1, 13]: 100
Plant response rating, Crabgrass, Large [2, 11]: 100
Crabgrass, Large plant response rating ([2]; Postemergence, 500 g ai/ha): 100
Plant response rating, Crabgrass, Large [2, 12]: 100
Plant response rating, Crabgrass, Large [2, 13]: 100
Plant response rating, Foxtail, Giant [3, 11]: 90
Foxtail, Giant plant response rating ([3]; Postemergence, 500 g ai/ha): 100
Plant response rating, Foxtail, Giant [3, 12]: 100
Plant response rating, Foxtail, Giant [3, 13]: 100
Plant response rating, Morningglory [4, 11]: 90
Morningglory plant response rating ([4]; Postemergence, 500 g ai/ha): 100
Plant response rating, Morningglory [4, 12]: 80
Plant response rating, Morningglory [4, 13]: 90
Plant response rating, Velvetleaf [5, 11]: 100
Velvetleaf plant response rating ([5]; Postemergence, 500 g ai/ha): 100
Plant response rating, Ryegrass, Italian [6, 14]: 35
Plant response rating, Ryegrass, Italian [6, 15]: 45
Plant response rating, Ryegrass, Italian [6, 16]: 65
Plant response rating, Ryegrass, Italian [6, 17]: 70
Plant response rating, Ryegrass, Italian [6, 18]: 35
Plant response rating, Ryegrass, Italian [6, 19]: 85
Plant response rating, Ryegrass, Italian [6, 20]: 85
Plant response rating, Ryegrass, Italian [6, 21]: 90
Plant response rating, Oat, Wild (wild oat (Avena fatua); [22]): 40
Plant response rating, Oat, Wild (wild oat (Avena fatua); [23]): 45
Plant response rating, Oat, Wild (wild oat (Avena fatua); [24]): 75
Plant response rating, Oat, Wild (wild oat (Avena fatua); 250 g ai/ha, scale 0 to 100): 90
Plant response rating, Galium [7, 14]: 70
Plant response rating, Galium [7, 15]: 75
Plant response rating, Galium [7, 16]: 80
Plant response rating, Galium [7, 17]: 95
Plant response rating, Galium [7, 18]: 98
Plant response rating, Galium [7, 19]: 100
Plant response rating, Galium [7, 20]: 100
Plant response rating, Galium [7, 21]: 100
Plant response rating, Crabgrass, Large [8, 14]: 20
Plant response rating, Crabgrass, Large [8, 15]: 45
Plant response rating, Crabgrass, Large [8, 16]: 75
Plant response rating, Crabgrass, Large [8, 17]: 85
Plant response rating, Crabgrass, Large [8, 18]: 100
Plant response rating, Crabgrass, Large [8, 19]: 100
Plant response rating, Crabgrass, Large [8, 20]: 100
Plant response rating, Crabgrass, Large [8, 21]: 100
Plant response rating, Nutsedge, Yellow [9, 14]: 5
Plant response rating, Nutsedge, Yellow [9, 15]: 10
Plant response rating, Nutsedge, Yellow [9, 16]: 10
Plant response rating, Nutsedge, Yellow [9, 17]: 20
Plant response rating, Nutsedge, Yellow [9, 18]: 0
Plant response rating, Chickweed [10, 22]: 50
Plant response rating, Chickweed [10, 23]: 70
Plant response rating, Chickweed [10, 24]: 95
Plant response rating, Chickweed ([10]; 250 g ai/ha, scale 0 to 100): 100

Cc1nn(-c2ccc(F)c(C(F)(F)F)c2)nc1Cc1ccnc(C(F)(F)F)c1 [Compound 156]
Plant response rating, Barnyardgrass [1, 11]: 90
Barnyardgrass plant response rating ([1]; Postemergence, 500 g ai/ha): 90
Plant response rating, Barnyardgrass [1, 12]: 100
Plant response rating, Barnyardgrass [1, 13]: 100
Plant response rating, Crabgrass, Large [2, 11]: 100
Crabgrass, Large plant response rating ([2]; Postemergence, 500 g ai/ha): 100
Plant response rating, Crabgrass, Large [2, 12]: 100
Plant response rating, Crabgrass, Large [2, 13]: 100
Plant response rating, Foxtail, Giant [3, 11]: 90
Foxtail, Giant plant response rating ([3]; Postemergence, 500 g ai/ha): 100
Plant response rating, Foxtail, Giant [3, 12]: 100
Plant response rating, Foxtail, Giant [3, 13]: 100
Plant response rating, Morningglory [4, 11]: 90
Morningglory plant response rating ([4]; Postemergence, 500 g ai/ha): 90
Plant response rating, Morningglory [4, 12]: 80
Plant response rating, Morningglory [4, 13]: 90
Plant response rating, Velvetleaf [5, 11]: 100
Velvetleaf plant response rating ([5]; Postemergence, 500 g ai/ha): 100
Plant response rating, Velvetleaf [5, 12]: 30
Plant response rating, Ryegrass, Italian [6, 14]: 15
Plant response rating, Ryegrass, Italian [6, 15]: 35
Plant response rating, Ryegrass, Italian [6, 16]: 35
Plant response rating, Ryegrass, Italian [6, 17]: 70
Plant response rating, Ryegrass, Italian [6, 18]: 45
Plant response rating, Ryegrass, Italian [6, 19]: 80
Plant response rating, Ryegrass, Italian [6, 20]: 90
Plant response rating, Ryegrass, Italian [6, 21]: 90
Plant response rating, Oat, Wild (wild oat (Avena fatua); [22]): 35
Plant response rating, Oat, Wild (wild oat (Avena fatua); [23]): 50
Plant response rating, Oat, Wild (wild oat (Avena fatua); [24]): 50
Plant response rating, Oat, Wild (wild oat (Avena fatua); 250 g ai/ha, scale 0 to 100): 70
Plant response rating, Galium [7, 14]: 80
Plant response rating, Galium [7, 15]: 90
Plant response rating, Galium [7, 16]: 90
Plant response rating, Galium [7, 17]: 95
Plant response rating, Galium [7, 18]: 85
Plant response rating, Galium [7, 19]: 100
Plant response rating, Galium [7, 20]: 100
Plant response rating, Galium [7, 21]: 100
Plant response rating, Crabgrass, Large [8, 14]: 10
Plant response rating, Crabgrass, Large [8, 15]: 30
Plant response rating, Crabgrass, Large [8, 16]: 40
Plant response rating, Crabgrass, Large [8, 17]: 70
Plant response rating, Crabgrass, Large [8, 18]: 90
Plant response rating, Crabgrass, Large [8, 19]: 90
Plant response rating, Crabgrass, Large [8, 20]: 98
Plant response rating, Crabgrass, Large [8, 21]: 100
Plant response rating, Nutsedge, Yellow [9, 14]: 5
Plant response rating, Nutsedge, Yellow [9, 15]: 10
Plant response rating, Nutsedge, Yellow [9, 16]: 10
Plant response rating, Nutsedge, Yellow [9, 17]: 10
Plant response rating, Nutsedge, Yellow [9, 18]: 0
Plant response rating, Nutsedge, Yellow [9, 19]: 0
Plant response rating, Nutsedge, Yellow [9, 20]: 0
Plant response rating, Nutsedge, Yellow [9, 21]: 0
Plant response rating, Chickweed [10, 22]: 95
Plant response rating, Chickweed [10, 23]: 95
Plant response rating, Chickweed [10, 24]: 95
Plant response rating, Chickweed ([10]; 250 g ai/ha, scale 0 to 100): 98
